# According to patent US7071158B2, “Antioxidant enhancement of therapy for hyperproliferative conditions” (Atherogenics, Inc., priority 1997, dated 2006):
# How the values were obtained:
# [1] = test system: HCT 15 cells; assay: Apoptotic index (TUNEL) with or without induced C/EBPβ overexpression; assay type: cell-based, human; conditions: 5-FU 1.5 μM or doxorubicin 0.1 μM, 24 hours
# Procedure: Control HCT 15 cells and the sense C/EBPβ cell line were induced with 10 μM muristerone A and exposed to either 5-FU (1.5 μM) or doxorubicin (0.1 μM) for 24 hours. The apoptotic index was calculated as described in FIG. 4C.
# Finally, the functional role of C/EBPβ was examined in the apoptotic signaling pathway by generating lines of HCT 15 cells that were stably transfected with the human C/EBPβ cDNA, in both the sense and antisense orientation, under the control of an ecdysone inducible promoter. To avoid the possibility that constitutively expressed C/EBPβ might induce cell death, and ecdysone (muristerone A)-inducible expression system (Invitrogen, Carlsbad, Calif.) was used. Human C/EBPβ cDNA was subcloned into pIND at convenient enzyme cleavage ites. Constructs, containing sense and antisense C/EBPβ sequences were verified by double-stranded DNA sequencing. Before transfection, pIND-C/EBPβ constructs were linearized with Pme I and purified. HCT 15 cells were transfected with 5 μg of pVgRXR (Invitrogen) and 10 μg of pIND-C/EBPβ using CELLFECTIN according to manufacture's instructions. After 24 hours, cells were shifted to medium supplemented with 1 mg/ml Geneticin and […] puromycin (GIBCO BRL) to select for transfectant clones. After 2 weeks, antibiotic-resistant cells were subcloned by limiting dilution. The expression of C/EBPβ protein and the subsequent induction of p21^WAF1/CIP1 was determined following induction with 10 μM muristerone A for 24 hours and Western blot analysis.
# [2] = test system: PP2A; assay: Dephosphorylation of radiolabeled C/EBPβ in DKO-1 lysates; assay type: biochemical, human; conditions: DKO-1 cell lysates (cells treated with 17 μM PDTC for three hours), ten minutes at 37 degrees C
# Procedure: FIG. 13 is a graph of time in hours versus percent radioactivity remaining on the protein substrate. […] The activity of PDTC is compared to I2 (a selective PP1 inhibitor), okadaic acid (an inhibitor of both PP2A and PP1), I2 and PDTC, and okadaic acid and PDTC. DKO-1 cells were grown in the presence of PDTC (test) or not (control). The cells were lysed, and then radioactive phosphorylated C/EBPβ was added. The test compounds were then added, and incubated with the lysate. The protein was collected and the amount of radioactive phosphate remaining in the protein measured.
# Cell lysates were prepared and treated with the following reagents in the presence of phosphorylated C/EBPβ in which the phosphate is radiolabeled, for ten minutes at 37 degrees C: I2 (a selective PP1 inhibitor), okadaic acid (a selective inhibitor of PP2A and PP1), PDTC, I2 and PDTC, and okadaic acid and PDTC. […] This effect is reversible following removal of the antioxidant.
# [3] = test system: rats; conditions: intravenously; cited from earlier work
# [4] = test system: HCT 15-derived tumors; assay: HCT 15 tumor xenografts in athymic mice; assay type: in vivo
# Procedure: HCT 15-derived tumors were generated as described above. Animals were then treated with pyrrolidinedithiocarbamate, in the presence or absence of 5-FU, for 3 weeks. At this point, treatments were discontinued in animals receiving the combined treatment of pyrrolidinedithiocarbamate and 5-FU for 2 months. All other treatment groups received both 5-FU and pyrrolidinedithiocarbamate for the remaining 3 weeks.
# (§5) Male athymic Balb/c nu/nu mice were obtained from the Harlan Sprague-Dawley Company at 4–6 weeks of age and were quarantined for at least 2 weeks before the study. […] HCT 116 and HCT 15 CRC cell lines were grown in DMEM supplemented with 10% FBS as described above. Cells were harvested through two consecutive trypsinizations, centrifuged at 300 g for 5 minutes, washed twice, and resuspended in sterile phosphate buffered saline. One ×10^6 cells in 0.2 ml were injected subcutaneously between the scapula of 7- to 10-week-old male nude mice.
# (§6) Tumor volumes were estimated weekly by measuring the maximal length, width, and height. Once tumors reached a mean size of 120 to 150 mm^3, animals received either weekly i.p. injections of pyrrolidinedithiocarbamate (70 μM) or vitamin E (3 mM), 5-FU (40 mg/kg) or saline, or a combination of pyrrolidinedithiocarbamate or vitamin E and 5-FU or 6 weeks. In cross-over experiments, animals received the above treatments for three weeks (with the exception of vitamin E), and then were crossed-over to either the combination treatment of pyrrolidinedithiocarbamate and 5-FU (saline, pyrrolidinedithiocarbamate or 5-FU alone) or discontinued treatment pyrrolidinedithiocarbamate and 5-FU) for the remaining three weeks of the experiment. […] Tumor volumes were recorded weekly until termination of the study.
# Tumor tissues were fixed overnight in 4% (v/v) paraformaldehyde and embedded in paraffin according to standard histological procedures. […] The proliferative index (BrDU) and the apoptotic index (TUNEL) were estimated by the percentage of cells scored under a microscope at 200-fold magnification.
# [5] = test system: HCT 116 CRC cells; assay: Flow cytometric cell cycle analysis (propidium iodide); assay type: cell-based, human; conditions: HCT 116, pyrrolidinedithiocarbamate 70 μM or vitamin E 3 mM, 24 hours
# Procedure: (§1) FIG. 1B is a series of flow cytometric analyses that indicate that antioxidants induce G1 cell cycle arrest and apoptosis in CRC cells. […] Twenty-four hours following antioxidant exposure, cells were harvested and flow cytometric analysis performed.
# (§2) DNA Content of nuclei was determined as described [I. G. Nicoletti et al., J Immunol. Methods. 139, 271 (1991)] by lysing plasma membranes, staining nuclear DNA with propidium iodide ([…]), and quantitating the relative DNA content of nuclei using the Becton Dickinson FACSORT fluorescence-activated cell sorter. The proportion of nuclei in each phase of the cell cycle was determined using MODFIT-DNA analysis software. Detection of apoptotic cells either by fluorescence microscopy or by flow cytometry was performed using the ApopTag Plus In Situ Apoptosis Detection Kit (Oncor, Gaithersburg, Md.) as described in the manufacturer's protocol. Briefly, gigoxygenin-labeled nucleotides were added to free 3′OH groups of DNA produced by DNA fragmentation during apoptosis by terminal deoxynucleotidyl transferase (TdT). Digoxygenin was detected by a FTC-conjugated anti-digoxygenin antibody. Analysis was carried out using the fluorescence-activated cell sorter and FITC staining visualized using a fluorescence microscope (Zeiss). […]
# [6] = test system: HCT 15 CRC cells; assay: as above; assay type: cell-based, human; conditions: HCT 15, pyrrolidinedithiocarbamate 70 μM or vitamin E 3 mM, 24 hours
# Procedure: as §1, §2
# [7] = test system: endogenous H2O2; assay: Intracellular H2O2 levels by flow cytometry with dihydrorhodamine; assay type: cell-based, human; conditions: up to 24 hours
# Procedure: FIG. 1C is a bar graph of the hours after test compound treatment versus intracellular H2O2 levels. FIG. 1C illustrates the negative association between intracellular redox status and cell cycle perturbations. Changes in the intracellular redox status were determined by the measurement of endogenous H2O2 levels. Background fluorescence was subtracted from each reading. Values are expressed as corrected DHR mean per 10^4 cells±s.e.m. The percentage of G1 (circle) or apoptotic (TUNEL-positive: square) cells by flow cytometric analysis.
# HCT 15 cells were incubated with pyrrolidinedithiocarbamate (70 μM), vitamin E (3 mM), N-acetylcysteine (50 μM) or vitamin C (200 μM) for 24 hours. Endogenous H2O2 levels and cell cycle changes were measured as described in FIG. 1C. […] Values from cells transfected with the empty plasmid were subtracted from those obtained from the catalase-containing cells and were expressed as mean±s.e.m. from duplicate dishes.
# Intracellular H2O2 levels were analyzed by flow cytometry using […] (DHR) as a specific fluorescent dye probe [G. Rothe, A. Emmendorffer, A. Oser, J. Roesler, G. Valet, J Immun. […] Cellular rhodamine 123 fluorescence intensity of 1×10^4 cells was measured for each sample using a Becton-Dickenson FACS Vantage flow cytometer with the excitation source at 488 nm and emission wave length of 580 nm. […]
# [8] = test system: HCT 116 cells; assay: Soft-agar colony formation (anchorage-independent growth)
# Procedure: (§3) FIG. 1A is a graph of the concentration of PDTC versus soft-agar forming units×10^6 HCT 15 and HCT 116 cells (as a percent of control). […] Soft-agar colony formation was measured by seeding HCT 116 or HCT 15 cells in soft agar supplemented with either medium alone (control), or increasing concentrations of pyrrolidinedithiocarbamate (25–200 μM) or vitamin E (0.1–10 mM). Colonies were scored at the end of 10 days incubation at 37° C. Values are representative of three experiments carried out in quadruplicate.
# (§4) HCT 116 and HCT 15 cells were seeded in soft agar as described above containing increasing concentrations of either 5-FU (5×10^−8 to 5×10^−5 M) or doxorubicin (1×10^−9 to 1×10^−6 M), in the presence or absence of pyrrolidinedithiocarbamate (70 μM) or vitamin E (3 mM). Colonies were scored after 10 days and IC50 values were calculated as the concentration of 5-FU or doxorubicin required to reduce basal colony formation by 50% (±s.e.m.). Values are representative of three experiments carried out in quadruplicate.
# [9] = test system: HCT 15 cells; assay: as above
# Procedure: as §3, §4
# [10] = test system: HCT 116 CRC tumor xenografts; assay: HCT 116 tumor xenografts in athymic mice; assay type: in vivo; conditions: for tumor volume compared to saline-treated controls: single agents, 6 weeks
# Procedure: HCT 116 CRC cells were injected subcutaneously between the scapula of nu/nu mice. Once tumors reached approximately 150 mm^3, the animals either received weekly i.p. injections of pyrrolidinedithiocarbamate (70 μM) or vitamin E (3 MM), 5-FU (40 mg/kg) or saline, or both an antioxidant and 5-FU. Tumor volume was calculated weekly.
# as §5, §6
# Tumor tissues were fixed overnight in 4% (v/v) paraformaldehyde and embedded in paraffin according to standard histological procedures. […] TdT labeling of fragmented DNA (TUNEL) was performed as described. The proliferative index (BrDU) and the apoptotic index (TUNEL) were estimated by the percentage of cells scored under a microscope at 200-fold magnification.
# [11] = test system: CRC cell; assay: CRC cell plating efficiency; assay type: cell-based, human; conditions: 25–200 μM (pyrrolidinedithiocarbamate) and 0.1–10 mM (vitamin E), preliminary studies
# [12] = test system: advanced, frequently mutant p53-containing colorectal cancer tumors; conditions: patients with advanced; cited from earlier work
# [13] = HCT 15 cells induced to overexpress C/EBPβ
# [14] = HCT 15 cells, absence of C/EBPβ overexpression
# [15] = HCT 116 xenografts, weekly i.p. injections
molecule,measurement,setting,value
COc1cccc2c1C(=O)c1c(O)c3c(c(O)c1C2=O)C[C@@](O)(C(=O)CO)C[C@@H]3O[C@H]1C[C@H](N)[C@H](O)[C@H](C)O1 [doxorubicin],apoptotic index,[1]; [13],80%
same,apoptotic index,[1]; [14],did not induce apoptosis
"C=C1[C@@H](O)[C@@H]2O[C@]3(CC[C@H](/C=C/[C@@H](C)[C@@H]4CC(C)=C[C@@]5(O[C@H](C[C@@](C)(O)C(=O)O)CC[C@H]5O)O4)O3)CC[C@H]2O[C@@H]1[C@@H](O)C[C@H](C)[C@H]1O[C@@]2(CCCCO2)CC[C@H]1C [okadaic acid, reference compound]",phosphatase activity toward phosphorylated C/EBPβ,[2],inhibited all DKO-1 phosphatase activity
"CC(=O)N[C@@H](CS)C(=O)O [N-acetylcysteine, acetamido-mercaptopropionic acid]",LD50,[3],1140 mg/kg
"Cc1c(C)c2c(c(C)c1O)CCC(C)(C(=O)O)O2 (stereo not shown) [6-hydroxy-2.5,7,8-tetramethylchroman-2-carboxylic acid]",increase of apoptotic index (TUNEL) of residual tumors,[4]; HCT 15 xenograft model,approximately 5 fold
same,accumulation of cells in the G1 peak,[5],induced a significant accumulation of cells in the G1 peak
same,accumulation of cells in the G1 peak,[6],induced a significant accumulation of cells in the G1 peak
same,endogenous H2O2 levels,"[7]; HCT 15 cells, N-acetylcysteine 50 μM, vitamin C 200 μM",significantly reduced endogenous H2O2 levels
same,endogenous H2O2 levels,[7]; HCT 116 cells,significantly reduced endogenous H2O2 levels
same,effect on the IC50 of 5-FU and doxorubicin,[8],decreased the IC50 for both 5-FU and doxorubicin
same,anchorage-independent growth,"[8]; HCT 116 cells, increasing amounts (25–200 μM pyrrolidinedithiocarbamate, 0.1–10 mM vitamin E)",dose-dependent reduction in anchorage-independent growth
same,IC50,"[8]; read-out: approximate IC50 in soft agar, HCT 116 cells, soft agar, 10 days",~3 mM
same,effect on the IC50 of 5-FU and doxorubicin,[9],decreased the IC50 for both 5-FU and doxorubicin
same,anchorage-independent growth,"[9]; HCT 15 cells, increasing amounts (25–200 μM pyrrolidinedithiocarbamate, 0.1–10 mM vitamin E)",dose-dependent reduction in anchorage-independent growth
same,IC50,"[9]; read-out: approximate IC50 in soft agar, HCT 15 cells, soft agar, 10 days",~3 mM
same,increase of apoptotic index (TUNEL) of residual tumors,[10]; HCT 116 xenograft model,approximately 5 fold
same,effect of adding the antioxidant to 5-FU on tumor volume,"[10]; HCT 116 xenografts, weekly i.p. injections, combined with 5-FU (40 mg/kg)",significantly enhanced the effect of 5-FU
same,tumor volume compared to saline-treated controls,[10]; [15],significantly reduced tumor volume
same,CRC cell plating efficiency,[11],no significant effect on CRC cell plating efficiency
"O=c1[nH]cc(F)c(=O)[nH]1 [5-FU, 5-fluorouracil]",tumor size,"[4]; HCT 15-derived tumors, after 3 weeks of single agent treatment, before cross-over",1864+190 mm^3
same,success rate,[12],15–20%
same,apoptotic index,[1]; [13],70%
same,apoptotic index,[1]; [14],20%
same,tumor volume compared to saline-treated controls,[10]; [15],significantly reduced tumor volume
"I2: a selective PP1 inhibitor (protein, UniProt P41236 2-205, looked up) Protein phosphatase inhibitor …: AASTASHRPIKGILKNKTSTTSSMVASAEQPRGNVDEELSKKSQKWDEMNILATYHPADKDYGLMKIDEPSTPYHSMMGDDEDACSDTEATEAMAPDILARKLAAAEGLEPKYRIQEQESSGEEDSDLSPEEREKKRQFEMKRKLHYNEGLNIKLARQLISKDLHDDDEDEEMLETADGESMNTEESNQGSTPSDQQQNKLRSS",phosphatase activity toward phosphorylated C/EBPβ,[2],failed to protect C/EBPβ from dephosphorylation
